Reference: PMC9045277, “Quercetin Reduces the Virulence of S. aureus by Targeting ClpP to Protect Mice from MRSA-Induced Lethal Pneumonia” (Microbiology Spectrum, 2022)

Target: T1, ClpP (Staphylococcus aureus, UniProt Q2G036)
T1 construct: pET28a-clpP, purified from E. coli BL21(DE3)
Assay: biochemical
Details: read-out: Relative inhibition rate (%)
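Further: ClpP peptidase activity measured as fluorescence (ex 360 nm, em 465 nm) from cleavage of Suc-LY-AMC substrate at 100 µM, 30 min at 32°C.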

T1 sequence (Q2G036 whole entry): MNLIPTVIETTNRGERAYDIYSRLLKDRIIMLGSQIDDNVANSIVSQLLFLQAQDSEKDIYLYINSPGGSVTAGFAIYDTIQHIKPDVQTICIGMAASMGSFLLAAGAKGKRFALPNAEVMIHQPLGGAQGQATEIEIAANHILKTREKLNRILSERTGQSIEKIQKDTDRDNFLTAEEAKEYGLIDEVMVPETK
Experimental: This property was exploited to screen the available laboratory library of small molecules for ClpP inhibitors. First, 10 μM ClpP and 64 μg/mL of the small molecule compound were added to a black opaque 96-well plate containing 100 μL of ClpP buffer (100 mM HEPES,100 mM NaCl) and incubated for 1 h at room temperature. Afterward, 100 μM Suc-LeuTyr-AMC (Cat number S1153, Sigma-Aldrich, St. Louis, MO, USA) was added to 96-well plates and incubated for 30 min at 32°C. Finally, the fluorescence values were detected by Infinite M200 (360 nm excitation/465 nm emission). […] Since the fluorescent substrate Suc-LY-AMC can be used to detect the activity of ClpP protein, we screened a library of natural products available in our laboratory.

SMILES	inhibition at 64 µg/mL
COc1cc(-c2oc3cc(OC)c(OC)c(O)c3c(=O)c2OC)ccc1O [Chrysosplenetin]	52.4 ± 0.36%
COc1ccc(-c2coc3cc(O)cc(O)c3c2=O)cc1 [Biochanin A]	28.2 ± 1.38%
COc1cc(-c2coc3cc(O[C@@H]4O[C@H](CO)[C@@H](O)[C@H](O)[C@H]4O)c(OC)c(O)c3c2=O)cc(O)c1OC [Iridin]	14.2 ± 1.39%
O=c1c(O)c(-c2ccc(O)cc2)oc2cc(O)cc(O)c12 [Kaempferol]	44 ± 2.75%
COc1cc(-c2oc3cc(O)cc(O)c3c(=O)c2O[C@@H]2O[C@H](CO[C@@H]3O[C@@H](C)[C@H](O)[C@@H](O)[C@H]3O)[C@@H](O)[C@H](O)[C@H]2O[C@@H]2O[C@@H](C)[C@H](O)[C@@H](O)[C@H]2O)ccc1O [Typhaneoside]	29.7 ± 0.72%
C[C@@H]1CC[C@H]2[C@@H](C)C(=O)O[C@@H]3O[C@@]4(C)CC[C@@H]1[C@]32OO4 [Artemisinin]	4.9 ± 4.21%
C[C@@H]1O[C@@H](OC[C@H]2O[C@@H](Oc3cc(O)c4c(=O)cc(-c5ccc(O)cc5)oc4c3)[C@H](O[C@@H]3O[C@@H](C)[C@H](O)[C@@H](O)[C@H]3O)[C@@H](O)[C@@H]2O)[C@H](O)[C@H](O)[C@H]1O [Ligustroflavone]	26.6 ± 1.16%
CC1(C)CCC2(CO)C(=C3C=CC4C5(C)CCC(OC6OC(COC7OC(CO)C(O)C(O)C7O)C(OC7OC(CO)C(O)C(O)C7O)C(O)C6O)CC5C(C)(CO)CC4(C)C3(C)CC2O)C1 (stereo not shown) [Clinodiside A]	16 ± 2.78%
O=c1c(O[C@@H]2O[C@H](CO)[C@@H](O)[C@H](O)[C@H]2O)c(-c2ccc(O)cc2)oc2cc(O)cc(O)c12 [Astragalin]	51.3 ± 1.73%
O=C(/C=C/c1ccc(O)c(O)c1)O[C@H]1[C@H](O)C[C@](O)(C(=O)O)C[C@H]1O [Cryptochlorogenic acid]	13.7 ± 3.15%
Cc1c(O)c(C)c2c(c1O)C(=O)C[C@@H](c1ccc(O)cc1)O2 [Farrerol]	33.5 ± 0.73%
O=C(O)[C@H]1O[C@@H](Oc2cc3oc(-c4ccccc4)cc(=O)c3c(O)c2O)[C@H](O)[C@@H](O)[C@@H]1O [Baicalin]	27.3 ± 0.55%
COc1ccc(-c2oc3c(CC=C(C)C)c(O)cc(O)c3c(=O)c2O[C@@H]2O[C@@H](C)[C@H](O)[C@@H](O)[C@H]2O)cc1 [Baohuoside I]	37.1 ± 0.59%
O=C(/C=C/c1ccc(O)cc1)OC[C@H]1O[C@@H](Oc2c(-c3ccc(O)cc3)oc3cc(O)cc(O)c3c2=O)[C@H](O)[C@@H](O)[C@@H]1O [Tiliroside]	3.6 ± 0.17%
COc1cc2c(=O)c(-c3ccc(O)cc3)coc2cc1O[C@@H]1O[C@H](CO)[C@@H](O)[C@H](O)[C@H]1O [Glycitin]	18.5 ± 1.26%
COc1ccc(/C=C/c2cc(O)cc(O)c2)cc1O [Rhapontigenin]	42.2 ± 2.89%
O=C1O[C@H]2[C@@H]3OC(=O)c4cc(O)c(O)c(O)c4-c4c(O)c(O)c5oc(=O)c6c(c(O)c(O)c7oc(=O)c4c5c76)-c4c(cc(O)c(O)c4O)C(=O)OC[C@H]3OC(O)[C@@H]2OC(=O)c2cc(O)c(O)c(O)c2-c2c1cc(O)c(O)c2O (mixture of isomers) [Punicalagin]	28.3 ± 3.67%
O=C1C[C@@H](c2ccc(O)cc2)Oc2cc(O)cc(O)c21 [Naringenin]	8.2 ± 0.24%
C[C@H]1CC[C@@]2(OC1)O[C@H]1C[C@H]3[C@@H]4CC[C@@H]5C[C@@H](O)CC[C@]5(C)[C@H]4CC[C@]3(C)[C@H]1[C@@H]2C [Sarsasapogenin]	7.8 ± 0.96%
O=C1c2c(O)cc(O)cc2O[C@H](c2ccc(O)c(O)c2)[C@H]1O [Taxifolin]	17.2 ± 1.2%
O=C(CCCCc1ccc2c(c1)OCO2)N1CCCCC1 [Tetrahydropiperine]	24.5 ± 3.67%
CC(=O)O[C@H]1C(=O)[C@@]2(C)[C@H]([C@H](OC(=O)c3ccccc3)[C@]3(O)C[C@H](O)C(C)=C1C3(C)C)[C@]1(OC(C)=O)CO[C@@H]1C[C@@H]2O [Baccatin III]	7.2 ± 3.26%

SMILES	inhibition at 64 µg/mL
COc1cc(O)c2c(=O)cc(-c3ccc(O)cc3)oc2c1 [Genkwanin]	13.7 ± 0.58%
O=C(O)[C@H]1O[C@@H](Oc2cc(O)c3c(=O)cc(-c4ccc(O)c(O)c4)oc3c2)[C@H](O)[C@@H](O)[C@@H]1O [luteolin-7-glucuronide]	47.1 ± 3.25%
COc1ccc(/C=C/C(=O)c2c(O)cc(OC)cc2OC)cc1 [Flavokawain A]	2.6 ± 1.17%
COc1ccc(-c2coc3cc(O[C@@H]4O[C@H](CO)[C@@H](O)[C@H](O)[C@H]4O)ccc3c2=O)cc1O [Calycosin-7-glucoside]	4.2 ± 0.84%
C/C=C/c1cc(OC)c2c(c1)C(C)C(c1ccc(O)c(OC)c1)O2 (stereo not shown) [Dehydrodiisoeugenol]	5.3 ± 0.61%
COc1cc2ccc(=O)oc2c(O)c1O [Fraxetin]	50.3 ± 4.62%
COc1ccc(-c2oc3c(CC=C(C)C)c(O[C@@H]4O[C@H](CO)[C@@H](O)[C@H](O)[C@H]4O)cc(O)c3c(=O)c2O[C@@H]2O[C@@H](C)[C@H](O)[C@@H](O[C@@H]3O[C@H](CO)[C@@H](O)[C@H](O)[C@H]3O)[C@H]2O)cc1 [Epimedin A1]	26.7 ± 0.81%
O=C1C([C@@H]2O[C@H](CO)[C@@H](O)[C@H](O)[C@H]2O)=C(O)/C(=C(O)/C=C/c2ccc(O)cc2)C(=O)C1(O)[C@@H]1O[C@H](CO)[C@@H](O)[C@H](O)[C@H]1O (stereo partly shown) [Hydroxysafflor yellow A]	52.4 ± 4.23%
COc1ccc(-c2cc(=O)c3c(O)cc(O[C@@H]4O[C@H](CO[C@@H]5O[C@@H](C)[C@H](O)[C@@H](O)[C@H]5O)[C@@H](O)[C@H](O)[C@H]4O)cc3o2)cc1O [Diosmin]	31.7 ± 0.92%
O=c1c(O[C@@H]2O[C@@H](CO)[C@H](O)[C@H]2O)c(-c2ccc(O)c(O)c2)oc2cc(O)cc(O)c12 [Avicularin]	46 ± 1.22%
COc1ccc(-c2oc3c(OC)c(O)cc(O)c3c(=O)c2O)cc1 [Prudomestin]	54.2 ± 4.67%
O=c1cc(-c2ccc(O)cc2)oc2cc(O)cc(O)c12 [Apigenin]	13.6 ± 0.52%
COc1c(O)cc(O)c2c(=O)cc(-c3ccccc3)oc12 [Wogonin]	35.4 ± 2.11%
COc1ccc(-c2cc(=O)c3c(OC)c(OC)c(OC)c(OC)c3o2)cc1 [Tangeretin]	41.2 ± 1.53%
COc1ccc(-c2oc3cc(OC)c(OC)c(O)c3c(=O)c2OC)cc1O [Casticin]	56.8 ± 1.22%
O=c1ccc2cc(O)c(O)cc2o1 [6,7-Dihydroxycoumarin]	19.6 ± 3.54%
COc1ccc(-c2cc(=O)c3c(O)c(OC)c(OC)cc3o2)cc1O [3',5-Dihydroxy-4',6,7-trimethoxyflavone]	55.8 ± 2.5%
CC(C)=CCc1cc2c(cc1O)O[C@H](c1ccc(O)cc1)CC2=O [Bavachin]	21.7 ± 1.75%
C[C@@H]1O[C@@H](O[C@H]2[C@H](Oc3cc(O)c(C(=O)CCc4ccc(O)cc4)c(O)c3)O[C@H](CO)[C@@H](O)[C@@H]2O)[C@H](O)[C@H](O)[C@H]1O [Naringin dihydrochalcone]	20.6 ± 0.51%
COc1ccc(-c2cc(=O)c3c(O)c(OC)c(O)c(OC)c3o2)cc1 [Lysionotin]	59.1 ± 1.55%
COC(=O)C1=CO[C@@H](O[C@@H]2O[C@H](CO)[C@@H](O)[C@H](O)[C@H]2O)[C@@H]2[C@@H](C)[C@@H](O)C[C@H]12 [Loganin]	14.7 ± 3.56%
